According to patent US11566007B2, “Ras inhibitors” (Revolution Medicines, Inc., priority 2019, dated 2023):

Columns and labels:
Format in all cases: biochemical
NRAS WT = NRAS WT (Homo sapiens (Human), UniProt P01111+P62937); assay: Ras-Raf (BRAF RBD) disruption / FRET / MOA assay, NRAS WT; conditions: read-out: IC50* NRAS WT FRET data
Outline: (§1)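 Compounds were tested as a 10-point 3-fold dilution series from 30 μM final for their ability to drive ternary complex formation between nucleotide-loaded Ras and cyclophilin A, displacing the BRAF RBD. After 3 h at 25° C., anti-His Eu-W1024 (10 nM) and anti-GST allophycocyanin (50 nM) were added for 1.5 h. A TR-FRET ratio decrease versus DMSO gave IC50.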

KRAS G12V = KRAS G12V (Homo sapiens (Human), UniProt P01116+P62937, G12V); assay: Ras-Raf (BRAF RBD) disruption / FRET / MOA assay, KRAS G12V; conditions: read-out: IC50* KRAS G12V FRET data
Chain of KRAS G12V (P01116-2 other isoform, or with tags, fused parts or gaps G12V): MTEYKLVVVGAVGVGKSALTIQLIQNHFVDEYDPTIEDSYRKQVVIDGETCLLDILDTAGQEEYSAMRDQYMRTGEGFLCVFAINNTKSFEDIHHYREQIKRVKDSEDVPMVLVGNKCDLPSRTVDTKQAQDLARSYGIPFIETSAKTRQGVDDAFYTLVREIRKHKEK
Chain of KRAS G12V (P62937 whole entry): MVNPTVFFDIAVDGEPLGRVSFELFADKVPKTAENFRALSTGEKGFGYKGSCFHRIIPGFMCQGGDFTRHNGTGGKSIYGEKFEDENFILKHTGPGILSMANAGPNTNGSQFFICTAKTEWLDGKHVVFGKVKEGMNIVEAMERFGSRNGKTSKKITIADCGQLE
Outline: (§2)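 Ternary complex formation (Ras–compound–cyclophilin A) displacing BRAF RBD, monitored by TR-FRET. Three hours at 25° C with compound (top 30 μM final), then 1.5 h with the labelled antibodies. Lower ratio than DMSO indicates disruption; IC50 reported.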

NRAS G12C = NRAS G12C (Homo sapiens (Human), UniProt P01111+P62937, G12C); assay: Ras-Raf (BRAF RBD) disruption / FRET / MOA assay, NRAS G12C; conditions: read-out: IC50* NRAS G12C FRET data
Chain of NRAS G12C (P01111 whole entry G12C): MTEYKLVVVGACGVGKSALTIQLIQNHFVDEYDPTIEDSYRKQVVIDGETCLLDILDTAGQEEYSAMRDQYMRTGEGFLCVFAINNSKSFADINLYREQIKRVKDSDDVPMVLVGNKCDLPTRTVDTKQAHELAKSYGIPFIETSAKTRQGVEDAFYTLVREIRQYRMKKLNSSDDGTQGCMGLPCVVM
Chain of NRAS G12C (P62937 whole entry): as the sequence (P62937 whole entry) above
Outline: as §2

K-Ras G13C = K-Ras G13C (Homo sapiens (Human), UniProt P01116+P62937, G13C); assay: Ras-Raf (BRAF RBD) disruption / FRET / MOA assay, KRAS G13C; conditions: KRAS G13C; Ras-Raf disruption/FRET/MOA assay; read-out: IC50* KRAS G13C FRET data
Chain of K-Ras G13C (P01116-2 other isoform, or with tags, fused parts or gaps G13C): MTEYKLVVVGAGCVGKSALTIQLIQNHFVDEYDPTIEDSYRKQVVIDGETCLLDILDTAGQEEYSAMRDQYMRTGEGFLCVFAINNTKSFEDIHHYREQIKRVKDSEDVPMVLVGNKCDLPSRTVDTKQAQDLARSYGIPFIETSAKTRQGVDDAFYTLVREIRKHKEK
Chain of K-Ras G13C (P62937 whole entry): as the sequence (P62937 whole entry) above
Outline: as §2

KRAS G12D = KRAS G12D (Homo sapiens (Human), UniProt P01116+P62937, G12D); assay: Ras-Raf (BRAF RBD) disruption / FRET / MOA assay, KRAS G12D; conditions: Ras-Raf disruption/FRET/MOA assay; class symbols; read-out: KRAS G12D FRET data IC50
Chain of KRAS G12D (P01116-2 other isoform, or with tags, fused parts or gaps G12D): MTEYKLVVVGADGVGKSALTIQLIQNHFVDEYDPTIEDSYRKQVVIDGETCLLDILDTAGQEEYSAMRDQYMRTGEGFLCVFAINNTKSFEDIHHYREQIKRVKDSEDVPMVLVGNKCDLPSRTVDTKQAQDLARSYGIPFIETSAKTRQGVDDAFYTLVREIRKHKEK
Chain of KRAS G12D (P62937 whole entry): as the sequence (P62937 whole entry) above
Outline: as §2

KRAS WT = KRAS WT (Homo sapiens (Human), UniProt P01116+P62937); assay: Ras-Raf (BRAF RBD) disruption / FRET / MOA assay, KRAS WT; conditions: read-out: IC50* KRAS WT FRET data
Chain of KRAS WT (P01116-2 other isoform, or with tags, fused parts or gaps): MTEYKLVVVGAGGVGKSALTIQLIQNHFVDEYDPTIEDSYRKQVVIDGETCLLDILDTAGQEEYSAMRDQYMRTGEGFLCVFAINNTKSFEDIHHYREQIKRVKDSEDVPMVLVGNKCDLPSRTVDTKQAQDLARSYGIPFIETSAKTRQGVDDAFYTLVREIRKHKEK
Chain of KRAS WT (P62937 whole entry): as the sequence (P62937 whole entry) above
Outline: as §2

KRAS G13D = KRAS G13D (Homo sapiens (Human), UniProt P01116+P62937, G13D); assay: Ras-Raf (BRAF RBD) disruption / FRET / MOA assay, KRAS G13D; conditions: read-out: IC50* KRAS G13D FRET data
Chain of KRAS G13D (P01116-2 other isoform, or with tags, fused parts or gaps G13D): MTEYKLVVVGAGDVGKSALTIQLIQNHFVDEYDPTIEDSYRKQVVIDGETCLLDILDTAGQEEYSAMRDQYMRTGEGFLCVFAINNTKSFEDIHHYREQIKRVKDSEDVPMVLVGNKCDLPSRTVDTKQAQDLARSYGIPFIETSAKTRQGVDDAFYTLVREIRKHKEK
Chain of KRAS G13D (P62937 whole entry): as the sequence (P62937 whole entry) above
Outline: as §2

K-Ras G12C = K-Ras G12C (Homo sapiens (Human), UniProt P01116+P62937, G12C); assay: Ras-Raf (BRAF RBD) disruption / FRET / MOA assay, KRAS G12C; conditions: KRAS G12C; Ras-Raf disruption/FRET/MOA assay; read-out: IC50* KRAS G12C FRET data
Chain of K-Ras G12C (P01116-2 other isoform, or with tags, fused parts or gaps G12C): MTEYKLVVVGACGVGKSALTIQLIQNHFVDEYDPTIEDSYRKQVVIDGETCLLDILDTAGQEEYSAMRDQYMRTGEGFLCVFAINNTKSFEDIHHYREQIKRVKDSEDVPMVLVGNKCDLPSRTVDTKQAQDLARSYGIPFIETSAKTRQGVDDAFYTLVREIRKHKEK
Chain of K-Ras G12C (P62937 whole entry): as the sequence (P62937 whole entry) above
Outline: as §2

KRAS G12S = KRAS G12S (Homo sapiens (Human), UniProt P01116+P62937, G12S); assay: Ras-Raf (BRAF RBD) disruption / FRET / MOA assay, KRAS G12S; conditions: Ras-Raf disruption/FRET/MOA assay; class symbols; read-out: KRAS G12S FRET data IC50
Chain of KRAS G12S (P01116-2 other isoform, or with tags, fused parts or gaps G12S): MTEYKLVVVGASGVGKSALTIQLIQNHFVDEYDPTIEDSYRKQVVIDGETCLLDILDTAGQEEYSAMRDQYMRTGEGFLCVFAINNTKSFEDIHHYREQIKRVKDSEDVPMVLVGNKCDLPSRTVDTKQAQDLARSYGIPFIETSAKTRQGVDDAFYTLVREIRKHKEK
Chain of KRAS G12S (P62937 whole entry): as the sequence (P62937 whole entry) above
Outline: as §2

NRAS Q61R = NRAS Q61R (Homo sapiens (Human), UniProt P01111+P62937, Q61R); assay: Ras-Raf (BRAF RBD) disruption / FRET / MOA assay, NRAS Q61R; conditions: NRAS Q61R; Ras-Raf disruption/FRET/MOA assay; read-out: IC50* NRAS Q61R FRET data
Chain of NRAS Q61R (P01111 whole entry Q61R): as the sequence (P01111 whole entry G12C) above, with C12G, Q61R counted along it
Chain of NRAS Q61R (P62937 whole entry): as the sequence (P62937 whole entry) above
Outline: as §1

Chain of NRAS WT (P01111 whole entry): as the sequence (P01111 whole entry G12C) above, with C12G counted along it
Chain of NRAS WT (P62937 whole entry): as the sequence (P62937 whole entry) above

Row | Structure (SMILES) | IC50 (NRAS WT) | IC50 (KRAS G12V) | IC50 (NRAS G12C) | IC50 (K-Ras G13C) | IC50 (KRAS G12D) | IC50 (KRAS WT) | IC50 (KRAS G13D) | IC50 (K-Ras G12C) | IC50 (KRAS G12S) | IC50 (NRAS Q61R)
1 | CCn1c(-c2cccnc2[C@H](C)OC)c2c3cc(ccc31)N1CCO[C@@H](C[C@H](NC(=O)[C@@H](COC3CN(C(=O)C#CC(C)(C)N(C)C)C3)C(C)C)C(=O)N3CCC[C@H](N3)C(=O)OCC(C)(C)C2)C1 (atropisomer, axis not shown) [Example A377, (2R)-2-(((1-(4-(dimethylamino)-4-methylpent-2-ynoyl)azetidin-3-yl)oxy)methyl)-N-((2^2S,6^3S,4S)-1^1-ethyl-1^2-(2-((S)-1-methoxyethyl)pyridin-3-yl)-10,10-dimethyl-5,7-dioxo-6^1,6^2,6^3,6^4,6^5,6^6-hexahydro-1^1H-8-oxa-2(4,2)-morpholina-1(5,3)-indola-6(1,3)-pyridazinacycloundecaphane-4-yl)-3-methylbutanamide] | > 10 µM | > 10 µM | < 0.01 µM | 1 to 10 µM | > 10 µM | > 10 µM | > 10 µM | < 0.01 µM | > 10 µM | > 10 µM
2 | CO[C@@H](C)c1ncccc1-c1c2c3cc(ccc3n1CC(F)(F)F)-c1csc(n1)C[C@H](NC(=O)CCOC1CN(C(=O)C#CC(C)(C)N(C)C)C1)C(=O)N1CCC[C@H](N1)C(=O)OCC(C)(C)C2 (atropisomer, axis not shown) [Example A380] | 1 to 10 µM | 0.1 to 1 µM | < 0.01 µM | 0.1 to 1 µM | 1 to 10 µM | 1 to 10 µM | 1 to 10 µM | < 0.01 µM | 1 to 10 µM | 1 to 10 µM
3 | C=CC(=O)N1C[C@H](C)N(C(=O)N(C)[C@H](C(=O)N[C@H]2Cc3nc(cs3)-c3ccc4c(c3)c(c(-c3cccnc3[C@H](C)OC)n4CC)CC(C)(C)COC(=O)[C@@H]3CCCN(N3)C2=O)C(C)C)[C@@H](C)C1 (atropisomer, axis not shown) [Example A386] | 0.01 to 0.1 µM | 0.1 to 1 µM | 0.01 to 0.1 µM | 0.1 to 1 µM | 0.1 to 1 µM | 0.01 to 0.1 µM | 0.1 to 1 µM | 0.01 to 0.1 µM | 0.1 to 1 µM | 0.01 to 0.1 µM
4 | C=CC(=O)N1C[C@@H](C)N(C(=O)N(C)[C@H](C(=O)N[C@H]2Cc3nc(cs3)-c3ccc4c(c3)c(c(-c3cccnc3[C@H](C)OC)n4CC)CC(C)(C)COC(=O)[C@@H]3CCCN(N3)C2=O)C(C)C)[C@@H](C)C1 (atropisomer, axis not shown) [Example A387] | 0.01 to 0.1 µM | 0.1 to 1 µM | 0.01 to 0.1 µM | 0.1 to 1 µM | 0.1 to 1 µM | 0.01 to 0.1 µM | 0.1 to 1 µM | 0.01 to 0.1 µM | 0.1 to 1 µM | 0.01 to 0.1 µM
5 | C=CC(=O)N1CC2(CCN(C(=O)N(C)[C@H](C(=O)N[C@H]3Cc4nc(cs4)-c4ccc5c(c4)c(c(-c4cccnc4[C@H](C)OC)n5CC)CC(C)(C)COC(=O)[C@@H]4CCCN(N4)C3=O)C(C)C)CC2)C1 (atropisomer, axis not shown) [Example A394] | 0.1 to 1 µM | 0.1 to 1 µM | 0.01 to 0.1 µM | 0.01 to 0.1 µM | 0.1 to 1 µM | 0.1 to 1 µM | 0.1 to 1 µM | 0.01 to 0.1 µM | 0.1 to 1 µM | 0.1 to 1 µM
6 | C=CC(=O)N1CCN(C(=O)N(C)[C@H](C(=O)N[C@H]2Cc3nc(cs3)-c3ccc4c(c3)c(c(-c3cccnc3[C@H](C)OC)n4CC)CC(C)(C)COC(=O)[C@@H]3CCCN(N3)C2=O)C(C)C)CC12CC2 (atropisomer, axis not shown) [Example A417] | 0.01 to 0.1 µM | 0.1 to 1 µM | 0.01 to 0.1 µM | 0.01 to 0.1 µM | 0.1 to 1 µM | 0.1 to 1 µM | 0.1 to 1 µM | 0.01 to 0.1 µM | 0.1 to 1 µM | 0.01 to 0.1 µM
7 | CCn1c(-c2cccnc2[C@H](C)OC)c2c3cc(ccc31)-c1csc(n1)C[C@H](NC(=O)CCOC1CN(C(=O)C#CC(C)(C)N(C)C)C1)C(=O)N1CCC[C@H](N1)C(=O)OCC(C)(C)C2 (atropisomer, axis not shown) [Example A427, 3-((1-(4-(dimethylamino)-4-methylpent-2-ynoyl)azetidin-3-yl)oxy)-N-((6^3S,4S,Z)-1^1-ethyl-1^2-(2-((S)-1-methoxyethyl)pyridin-3-yl)-10,10-dimethyl-5,7-dioxo-6^1,6^2,6^3,6^4,6^5,6^6-hexahydro-1^1H-8-oxa-2(4,2)-thiazola-1(5,3)-indola-6(1,3)-pyridazinacycloundecaphane-4-yl)propanamide] | 1 to 10 µM | 1 to 10 µM | < 0.01 µM | 1 to 10 µM | > 10 µM | 1 to 10 µM | 1 to 10 µM | < 0.01 µM | 1 to 10 µM | > 10 µM
8 | C=CC(=O)N1CC[C@H](C(=O)N(C)[C@H](C(=O)N[C@H]2Cc3cccc(c3)-c3ccc4c(c3)c(c(-c3cc5c(nc3[C@H](C)OC)CCN(C)C5)n4CC)CC(C)(C)COC(=O)[C@@H]3CCCN(N3)C2=O)C(C)C)C1 (atropisomer, axis not shown) [Example A461] | 1 to 10 µM | 1 to 10 µM | 0.1 to 1 µM | 1 to 10 µM | > 10 µM | 1 to 10 µM | > 10 µM | 0.1 to 1 µM | 1 to 10 µM | 1 to 10 µM
9 | C=CC(=O)N(C)C1CN(C(=O)N(C)[C@H](C(=O)N[C@H]2Cc3nc(cs3)-c3ccc4c(c3)c(c(-c3cccnc3[C@H](C)OC)n4CC)CC(C)(C)COC(=O)[C@@H]3CCCN(N3)C2=O)C(C)C)C1 (atropisomer, axis not shown) [Example A463] | 0.1 to 1 µM | 0.1 to 1 µM | 0.01 to 0.1 µM | 0.1 to 1 µM | 1 to 10 µM | 0.1 to 1 µM | 0.1 to 1 µM | 0.01 to 0.1 µM | 0.1 to 1 µM | 0.1 to 1 µM
10 | C=CC(=O)N1CC[C@H](C(=O)N(C)[C@H](C(=O)N[C@H]2Cc3nc(cs3)-c3ccc4c(c3)c(c(-c3cc5c(nc3[C@H](C)OC)CCN(C)C5)n4CC)CC(C)(C)COC(=O)[C@@H]3CCCN(N3)C2=O)C(C)C)C1 (atropisomer, axis not shown) [Example A472] | 1 to 10 µM | 1 to 10 µM | 0.1 to 1 µM | 1 to 10 µM | > 10 µM | 1 to 10 µM | 1 to 10 µM | 0.1 to 1 µM | 1 to 10 µM | 1 to 10 µM
11 | C=CC(=O)N1CC[C@H](C(=O)N(C)[C@H](C(=O)N[C@H]2Cc3cc(C)cc(c3)-c3ccc4c(c3)c(c(-c3cccnc3[C@H](C)OC)n4CC)CC(C)(C)COC(=O)[C@@H]3CCCN(N3)C2=O)C(C)C)C1 (atropisomer, axis not shown) [Example A498] | 1 to 10 µM | 1 to 10 µM | 0.1 to 1 µM | 1 to 10 µM | > 10 µM | 1 to 10 µM | > 10 µM | 0.1 to 1 µM | 1 to 10 µM | 1 to 10 µM
12 | C=CC(=O)N1CC[C@H](C(=O)N(C)[C@H](C(=O)N[C@H]2Cc3cccc(c3)-c3ccc4c(c3)c(c(-c3cccnc3[C@H](C)OC)n4CC#CC)CC(C)(C)COC(=O)[C@@H]3CCCN(N3)C2=O)C(C)C)C1 (atropisomer, axis not shown) [Example A531] | 1 to 10 µM | 1 to 10 µM | 0.1 to 1 µM | 1 to 10 µM | > 10 µM | 1 to 10 µM | > 10 µM | 0.1 to 1 µM | 1 to 10 µM | 1 to 10 µM
13 | C=CC(=O)N1CCOC2(C1)CN(C(=O)N(C)[C@H](C(=O)N[C@H]1Cc3cccc(c3)-c3ccc4c(c3)c(c(-c3cccnc3[C@H](C)OC)n4CC(F)(F)F)CC(C)(C)COC(=O)[C@@H]3CCCN(N3)C1=O)C(C)C)C2 (atropisomer, axis not shown) [Example A538] | 0.1 to 1 µM | 0.1 to 1 µM | 0.01 to 0.1 µM | 0.01 to 0.1 µM | 1 to 10 µM | 0.1 to 1 µM | 0.1 to 1 µM | 0.01 to 0.1 µM | 0.1 to 1 µM | 0.1 to 1 µM
